Test results published in the NIST ThermoML archive (doi:10.1021/acs.jced.5b00820).

Assay: xn = mol fraction of the nth substance listed
Conditions: 102.2 kPa, Liquid, Vibrating tube method

C[Si](C)(O[Si](C)(C)c1ccccc1)c1ccccc1 [1,3-diphenyltetramethyldisiloxane] + C=C[Si]1(C)O[Si](C)(C=C)O[Si](C)(C=C)O[Si](C)(C=C)O1
mass density [kg/m3]
Conditions | 308.15 K | 313.15 K | 318.15 K | 323.15 K | 328.15 K
x1 = 0.0511 | 972.67 | 967.57 | 962.46 | 957.29 | 952.25
x1 = 0.1004 | 972.68 | 967.63 | 962.58 | 957.53 | 952.52
x1 = 0.1503 | 972.67 | 967.67 | 962.67 | 957.67 | 952.66
x1 = 0.2 | 972.66 | 967.72 | 962.77 | 957.83 | 952.88
x1 = 0.2537 | 972.63 | 967.74 | 962.86 | 957.97 | 953.1
x1 = 0.3001 | 972.56 | 967.72 | 962.9 | 958.06 | 953.26
x1 = 0.3507 | 972.42 | 967.63 | 962.84 | 958.04 | 953.25
x1 = 0.4002 | 972.3 | 967.56 | 962.83 | 958.06 | 953.33
x1 = 0.4503 | 972.13 | 967.44 | 962.77 | 958.08 | 953.42
x1 = 0.4999 | 971.87 | 967.23 | 962.58 | 957.92 | 953.25
x1 = 0.5501 | 971.69 | 967.12 | 962.54 | 957.94 | 953.39
x1 = 0.597 | 971.42 | 966.89 | 962.34 | 957.8 | 953.24
x1 = 0.6498 | 971.17 | 966.7 | 962.23 | 957.76 | 953.3
x1 = 0.7005 | 970.8 | 966.35 | 961.92 | 957.49 | 953.06
x1 = 0.7492 | 970.45 | 966.08 | 961.71 | 957.33 | 952.96
x1 = 0.8001 | 970.05 | 965.73 | 961.41 | 957.09 | 952.78
x1 = 0.8497 | 969.63 | 965.36 | 961.11 | 956.85 | 952.59
x1 = 0.8999 | 969.05 | 964.82 | 960.59 | 956.35 | 952.09
x1 = 0.9502 | 968.57 | 964.4 | 960.23 | 956.03 | 951.87
x1 = 1 | 968.05 | 963.94 | 959.84 | 955.74 | 951.65

C[Si](C)(O[Si](C)(C)c1ccccc1)c1ccccc1 [1,3-diphenyltetramethyldisiloxane] + C=C[Si](C)(C)O[Si](C)(C)C=C
mass density [kg/m3]
Conditions | 308.15 K | 313.15 K | 318.15 K | 323.15 K | 328.15 K
x1 = 0.0502 | 809.57 | 804.7 | 799.79 | 794.89 | 789.94
x1 = 0.1 | 820.63 | 815.84 | 811.01 | 806.21 | 801.35
x1 = 0.1487 | 831.07 | 826.38 | 821.62 | 816.9 | 812.12
x1 = 0.2002 | 841.7 | 837.11 | 832.41 | 827.77 | 823.05
x1 = 0.2498 | 851.61 | 847.08 | 842.45 | 837.87 | 833.22
x1 = 0.3 | 861.28 | 856.78 | 852.19 | 847.66 | 843.06
x1 = 0.3503 | 870.64 | 866.2 | 861.68 | 857.2 | 852.68
x1 = 0.3994 | 879.46 | 875.05 | 870.55 | 866.12 | 861.63
x1 = 0.4502 | 888.32 | 883.96 | 879.52 | 875.17 | 870.72
x1 = 0.5001 | 896.73 | 892.42 | 888.02 | 883.7 | 879.29
x1 = 0.5498 | 904.84 | 900.61 | 896.23 | 891.95 | 887.57
x1 = 0.6002 | 912.8 | 908.56 | 904.21 | 899.93 | 895.59
x1 = 0.6502 | 920.47 | 916.26 | 911.95 | 907.71 | 903.38
x1 = 0.7004 | 927.9 | 923.73 | 919.47 | 915.27 | 911
x1 = 0.7504 | 935.1 | 930.94 | 926.72 | 922.51 | 918.26
x1 = 0.8003 | 942.07 | 937.9 | 933.7 | 929.52 | 925.3
x1 = 0.8498 | 948.8 | 944.66 | 940.48 | 936.33 | 932.14
x1 = 0.8986 | 955.23 | 951.09 | 946.94 | 942.83 | 938.64
x1 = 0.9502 | 961.82 | 957.69 | 953.57 | 949.47 | 945.33
x1 = 1 | 967.99 | 963.87 | 959.76 | 955.68 | 951.57

C[Si](C)(O[Si](C)(C)c1ccccc1)c1ccccc1 [1,3-diphenyltetramethyldisiloxane] + C[Si]1(C)O[Si](C)(C)O[Si](C)(C)O[Si](C)(C)O1
mass density [kg/m3]
Conditions | 308.15 K | 313.15 K | 318.15 K | 323.15 K | 328.15 K
x1 = 0.05 | 940.79 | 935.08 | 929.44 | 923.79 | 918.1
x1 = 0.0999 | 942.6 | 937.01 | 931.46 | 925.91 | 920.32
x1 = 0.1503 | 944.43 | 938.95 | 933.49 | 928.04 | 922.57
x1 = 0.2005 | 946.19 | 940.8 | 935.45 | 930.1 | 924.72
x1 = 0.2507 | 947.88 | 942.59 | 937.33 | 932.06 | 926.77
x1 = 0.2963 | 949.39 | 944.19 | 939.02 | 933.84 | 928.63
x1 = 0.3509 | 951.16 | 946.05 | 940.97 | 935.88 | 930.78
x1 = 0.4001 | 952.67 | 947.66 | 942.65 | 937.65 | 932.62
x1 = 0.4471 | 954.04 | 949.1 | 944.16 | 939.26 | 934.29
x1 = 0.4968 | 955.6 | 950.74 | 945.91 | 941.08 | 936.23
x1 = 0.5512 | 957.17 | 952.39 | 947.64 | 942.9 | 938.15
x1 = 0.6003 | 958.51 | 953.82 | 949.15 | 944.46 | 939.79
x1 = 0.6502 | 959.83 | 955.22 | 950.62 | 946.01 | 941.41
x1 = 0.7001 | 961.15 | 956.6 | 952.09 | 947.56 | 943.03
x1 = 0.7497 | 962.4 | 957.92 | 953.48 | 949.04 | 944.59
x1 = 0.8 | 963.64 | 959.25 | 954.87 | 950.49 | 946.11
x1 = 0.85 | 964.8 | 960.48 | 956.18 | 951.88 | 947.58
x1 = 0.896 | 965.82 | 961.53 | 957.3 | 953.03 | 948.8
x1 = 0.9497 | 967 | 962.79 | 958.63 | 954.45 | 950.29
x1 = 1 | 968.05 | 963.92 | 959.8 | 955.69 | 951.58

C[Si](C)(O[Si](C)(C)c1ccccc1)c1ccccc1 [1,3-diphenyltetramethyldisiloxane] + C[Si]1(CCC(F)(F)F)O[Si](C)(CCC(F)(F)F)O[Si](C)(CCC(F)(F)F)O1
mass density [kg/m3]
Conditions | 308.15 K | 313.15 K | 318.15 K | 323.15 K | 328.15 K
x1 = 0.0501 | 1225.8 | 1219.39 | 1212.88 | 1206.4 | 1199.88
x1 = 0.1001 | 1214.52 | 1208.2 | 1201.82 | 1195.45 | 1189.07
x1 = 0.1499 | 1203.4 | 1197.13 | 1190.88 | 1184.63 | 1178.37
x1 = 0.2005 | 1191.71 | 1185.57 | 1179.46 | 1173.35 | 1167.25
x1 = 0.2497 | 1180.12 | 1174.1 | 1168.1 | 1162.13 | 1156.13
x1 = 0.3 | 1167.98 | 1162.08 | 1156.21 | 1150.35 | 1144.49
x1 = 0.3431 | 1157.27 | 1151.54 | 1145.79 | 1140.01 | 1134.24
x1 = 0.4001 | 1142.74 | 1137.19 | 1131.56 | 1125.93 | 1120.32
x1 = 0.45 | 1130.1 | 1124.64 | 1119.13 | 1113.61 | 1108.09
x1 = 0.4998 | 1117.1 | 1111.69 | 1106.32 | 1100.93 | 1095.54
x1 = 0.5482 | 1104.11 | 1098.84 | 1093.55 | 1088.31 | 1083.03
x1 = 0.5996 | 1089.99 | 1084.84 | 1079.71 | 1074.57 | 1069.43
x1 = 0.6501 | 1075.78 | 1070.7 | 1065.65 | 1060.62 | 1055.6
x1 = 0.7 | 1061.47 | 1056.57 | 1051.69 | 1046.82 | 1041.93
x1 = 0.75 | 1046.74 | 1041.96 | 1037.22 | 1032.47 | 1027.7
x1 = 0.8001 | 1031.67 | 1027.02 | 1022.41 | 1017.79 | 1013.17
x1 = 0.8499 | 1016.33 | 1011.73 | 1007.33 | 1002.84 | 998.35
x1 = 0.8998 | 1000.6 | 996.22 | 991.87 | 987.37 | 983.15
x1 = 0.95 | 984.46 | 980.22 | 976.02 | 971.79 | 967.58
x1 = 1 | 967.9 | 963.8 | 959.75 | 955.65 | 951.57
